{
  "source": "patent US5747462A",
  "about": "“Pharmaceutically active compounds and their use” (priority 1995, dated 1998)",
  "assay": "quantitative evaluation of intradermoplantar edema induced by lambda-carrageenan in guinea pigs (plethysmometer)",
  "settings": "for anti-inflammatory effect with respect to the carrageenan standard (S2): p<0.000, one way variance analysis and Tukey's multiple comparisons, at the experimental doses used",
  "description": "This inoculation initiates an inflammatory process defined as the standard inflammatory constant of all the preclinical trials.\nThe comparative evaluation is performed by measuring with a plethysmometer the change in volume in milliliters of mercury and expressing the results in absolute volume (ml) and relative percentage (°/l or %) values versus the variable of time in hours (h).\nThe inflammatory response is induced by inoculating carrageenan into the animal's plantar pad, and the change in volume is measured with a plethysmometer in milliliters of mercury.\nThe technique employed is adapted to a biological model of guinea pigs, and evaluates the intensity of the edema as the increase or decrease in the proportion of relative inflamed volume. The equation which describes this variable is: postinoculation volume minus preinoculation control volume divided by preinoculation control volume.\nThe method of measurement is composed of three basic steps:\nMeasurement of the clinical parameter inflammation volume obtained on inoculating an inflammatory noxa. This procedure constitutes the inflammatory standard (inflammatory control).\nMeasurement of the change in the clinical parameter inflammation volume by applying to the inflammatory standard a drug recognized as anti-inflammatory reference substance (anti-inflammatory control).\nMeasurement of the change in the clinical parameter inflammation volume by applying to the inflammatory standard an anti-inflammatory composition and/or subcompositions (invention).\nStandard (S2): 0.1 ml of the pharmaceutically acceptable injectable formulation containing 1% of lambda-carrageenan, prepared according to standard processes in sterile water for injections and administered via the intradermoplantar route. Single dose of carrageenan between 3.6 and 3.9 mg/kg animal body weight.\nReference substance (P1): 2.0 ml of the pharmaceutically acceptable injectable formulation containing 6.25% of acetylsalicylic acid (ASA), prepared according to standard processes in sterile water for injections and administered intraperitoneally. Single dose of ASA, between 418.1 and 490.2 mg/kg animal body weight.",
  "data": [
    {"smiles": "O=C(O)Cc1ccccc1Nc1c(Cl)cccc1Cl", "note": "[DICLO (P2), diclofenac sodium]", "values": [
      {"measurement": "% Inflammation", "setting": "0 h, diclofenac sodium 94.8-105.8 mg/kg i.p. single dose", "result": "00.000", "unit": "%"},
      {"measurement": "% Inflammation", "setting": "1 h, diclofenac sodium 94.8-105.8 mg/kg i.p. single dose", "result": 12.500, "unit": "%"},
      {"measurement": "% Inflammation", "setting": "2 h, diclofenac sodium 94.8-105.8 mg/kg i.p. single dose", "result": 12.600, "unit": "%"},
      {"measurement": "% Inflammation", "setting": "5 h, diclofenac sodium 94.8-105.8 mg/kg i.p. single dose", "result": 11.400, "unit": "%"},
      {"measurement": "% Inflammation", "setting": "6 h, diclofenac sodium 94.8-105.8 mg/kg i.p. single dose", "result": 12.300, "unit": "%"},
      {"measurement": "anti-inflammatory effect with respect to the carrageenan standard (S2)", "result": "significant anti-inflammatory effect"}
    ]},
    {"smiles": "CC(=O)Oc1ccccc1C(=O)O", "note": "[ASA (P1), acetylsalicylic acid]", "values": [
      {"measurement": "% Inflammation", "setting": "0 h, ASA 418.1-490.2 mg/kg i.p. single dose", "result": "00.000", "unit": "%"},
      {"measurement": "% Inflammation", "setting": "1 h, ASA 418.1-490.2 mg/kg i.p. single dose", "result": "05.620", "unit": "%"},
      {"measurement": "% Inflammation", "setting": "2 h, ASA 418.1-490.2 mg/kg i.p. single dose", "result": 13.700, "unit": "%"},
      {"measurement": "% Inflammation", "setting": "3 h, ASA 418.1-490.2 mg/kg i.p. single dose", "result": 10.450, "unit": "%"},
      {"measurement": "% Inflammation", "setting": "4 h, ASA 418.1-490.2 mg/kg i.p. single dose", "result": 12.020, "unit": "%"},
      {"measurement": "% Inflammation", "setting": "5 h, ASA 418.1-490.2 mg/kg i.p. single dose", "result": 12.100, "unit": "%"},
      {"measurement": "% Inflammation", "setting": "6 h, ASA 418.1-490.2 mg/kg i.p. single dose", "result": 10.450, "unit": "%"},
      {"measurement": "% Inflammation", "setting": "7 h, ASA 418.1-490.2 mg/kg i.p. single dose", "result": "09.810", "unit": "%"},
      {"measurement": "anti-inflammatory effect with respect to the carrageenan standard (S2)", "result": "significant anti-inflammatory effect"}
    ]}
  ]
}
